Holding throughout (assay type): cell-based
For one experiment, the system named is RPMI8226. The experiment is described as follows: cell proliferation, tumor derived cell lines. The conditions noted are these: Homo sapiens, RPMI-8226, Multiple myeloma (MM), 72 or 96 hours exposure. The method, then:
(§1) Thirty-seven cancer derived cell lines are used (BT474, MDA-MB-361, MDA-MB-453, SKBr3, T47D, MCF7, MDA-MB-231, MDA-MB-468, SK-MEL-5, A375, MALME-3M, SK-MEL-28, WM266.4, RPMI8226, U266, BE, Colo205, HCT116, HT29, MAWI, RKO, U87MG, HN5, RPMI-8226, A549, MV522, NCI-H1299, NCI-H460, 41M, A2780, CHI, NCI-N87, SKOV3, PC3, MO7e, GIST882 and Baf3) to test the effect of 5-(2,4-Dihydroxy-5-isopropyl-phenyl)-4-(4-morpholin-4-ylmethyl-phenyl)-isoxazole-3-carboxylic acid ethylamide. Cell lines are commercially available from American Type Culture Collection (ATCC). These cell lines cover the following 12 cancer or tumor types: breast, melanoma, multiple myeloma (MM), colon, glioblastoma, head & neck, leukemia, lung, ovarian, prostate, stomach and gastrointestinal stromal tumour (GIST). After division and medium change, cells from stock culture are seeded on cell plates and cultured for about 18 hours to allow cell growth and attachment before starting the assay. On the first day of the assay, 5-(2,4-Dihydroxy-5-isopropyl-phenyl)-4-(4-morpholin-4-ylmethyl-phenyl)-isoxazole-3-carboxylic acid ethylamide is added to the medium at various concentrations up to […]. Cells are cultured up to 72 or 96 hours and cell proliferation is determined using commercially available cell proliferation kits.
(§2) The cells were continually exposed to 5-(2,4-Dihydroxy-5-isopropyl-phenyl)-4-(4-morpholin-4-ylmethyl-phenyl)-isoxazole-3-carboxylic acid ethylamide for either 72 or 96 hours and cell growth was determined by commercially available kits based on either SRB, Alamar blue, methylene blue or WST-1 methods.

The subject of another experiment is SK-MEL-5. The experiment is described as follows: cell proliferation, tumor derived cell lines. To be noted: Homo sapiens, Melanoma, 72 or 96 hours exposure. The procedure:
as §1, §2

In another experiment the test system is SKOV3. The experiment is described as follows: cell proliferation, tumor derived cell lines. The conditions noted are these: Homo sapiens, SK-OV-3, Ovarian, 72 or 96 hours exposure. The method, then: as §1, §2
In the next experiment the test system is WM266.4. The experiment is described as follows: cell proliferation, tumor derived cell lines. The conditions noted are these: Homo sapiens, WM 266-4, Melanoma, 72 or 96 hours exposure. The method, then:
as §1, §2

For another experiment, the system named is NCI-N87. Nature of the experiment: cell proliferation, tumor derived cell lines. To be noted: Homo sapiens, Stomach, 72 or 96 hours exposure. The procedure:
as §1, §2

Another experiment has as its system OVXF 1544. Nature of the experiment: clonogenic assay, human tumor xenografts in vitro. The conditions noted are these: Ovary, OVXF 1544, Carcinoma, soft agar, read-out: IC50 (nM), colony formation. The procedure:
(§3) The anticancer activity of 5-(2,4-Dihydroxy-5-isopropyl-phenyl)-4-(4-morpholin-4-ylmethyl-phenyl)-isoxazole-3-carboxylic acid ethylamide is evaluated in 30 human tumor xenografts in vitro using a clonogenic assay. In this assay, human cells derived from cancer patients are evaluated for the capacity of 5-(2,4-Dihydroxy-5-isopropyl-phenyl)-4-(4-morpholin-4-ylmethyl-phenyl)-isoxazole-3-carboxylic acid ethylamide to inhibit the formation of 3 dimensional colonies. […] The tumor xenografts which have never been cultured in cell culture plastic dishes are isolated from nude mice. Tumor cell suspensions are prepared and incubated in 24 well plates containing layers of soft agar. Under these conditions a special subpopulation of cells selectively grows to colonies. 5-(2,4-Dihydroxy-5-isopropyl-phenyl)-4-(4-morpholin-4-ylmethyl-phenyl)-isoxazole-3-carboxylic acid ethylamide was tested in 6 concentrations up to […]. The tumor test panel comprises 1 to 6 models of 10 different human tumor or cancer types, which were bladder cancer, colon, liver, non small cell lung (adeno, squamous epithelium and large cell), small cell lung, mammary, ovary, pancreatic, melanoma and pleuramesothelioma. Antitumor effects are recorded as inhibition of colony formation in relation to untreated controls. Further information on the method has been published (Burger et al., 2004; Fiebig et al., 2004; Smith et al., 2005).
(§4) The cells are continually exposed to 5-(2,4-Dihydroxy-5-isopropyl-phenyl)-4-(4-morpholin-4-ylmethyl-phenyl)-isoxazole-3-carboxylic acid ethylamide and colony formation is determined.

A further experiment concerns CXF 158. The experiment is described as follows: clonogenic assay, human tumor xenografts in vitro. The conditions noted are these: CXF158, Colon, CXF 158, Adeno carcinoma, soft agar, read-out: IC50 (nM), colony formation. The procedure:
as §3, §4
Background: Xenograft models place foreign cells or tissue in a host animal.

A further experiment has as its system MEXF 1539. The experiment is described as follows: clonogenic assay, human tumor xenografts in vitro. The conditions noted are these: Melanoma, MEXF 1539, Melanoma, soft agar, read-out: IC50 (nM), colony formation. The method, then:
as §3, §4

Another experiment concerns LIXF 575. The experiment is described as follows: clonogenic assay, human tumor xenografts in vitro. To be noted: Liver, LIXF 575, Hepatocellular carcinoma, soft agar, read-out: IC50 (nM), colony formation. The procedure:
as §3, §4

In the next experiment the test system is MEXF 672. The experiment is described as follows: clonogenic assay, human tumor xenografts in vitro. To be noted: Melanoma, MEXF 672, Amelanotic melanoma, soft agar, read-out: IC50 (nM), colony formation. The method, then: as §3, §4
For the next experiment, the system named is BXF 1228. The experiment is described as follows: clonogenic assay, human tumor xenografts in vitro. To be noted: Bladder, BXF 1228, Transitional cell carcinoma, soft agar, read-out: IC50 (nM), colony formation. The method, then:
as §3, §4

The test system of a further experiment is PAXF 1657. The experiment is described as follows: clonogenic assay, human tumor xenografts in vitro. The conditions noted are these: Pancreas, PAXF 1657, Adeno carcinoma, soft agar, read-out: IC50 (nM), colony formation. The method, then:
as §3, §4

Another experiment deals with CXF 609. The experiment is described as follows: clonogenic assay, human tumor xenografts in vitro. The conditions noted are these: Colon, CXF 609, Adeno carcinoma, soft agar, read-out: IC50 (nM), colony formation. The method, then:
as §3, §4

A further experiment has as its system MAXF 401. The experiment is described as follows: clonogenic assay, human tumor xenografts in vitro. The conditions noted are these: MAXF401, Breast, MAXF 401, Pap. adeno carcinoma, soft agar, read-out: IC50 (nM), colony formation. The method, then:
as §3, §4

In a further experiment the test system is BXF 1218. The experiment is described as follows: clonogenic assay, human tumor xenografts in vitro. The conditions noted are these: Bladder, BXF 1218, Transitional cell carcinoma, soft agar, read-out: IC50 (nM), colony formation. The method, then: as §3, §4
The next experiment deals with LXFA 297. The experiment is described as follows: clonogenic assay, human tumor xenografts in vitro. The conditions noted are these: Lung, non-small cell, LXFA 297, Adeno carcinoma, soft agar, read-out: IC50 (nM), colony formation. The procedure: as §3, §4
For another experiment, the system named is LXFL 1647. The experiment is described as follows: clonogenic assay, human tumor xenografts in vitro. The conditions noted are these: Lung, non-small cell, LXFL 1647, Large cell lung carcinoma, soft agar, read-out: IC50 (nM), colony formation. The method, then: as §3, §4
The test system of another experiment is LXFS 650. Nature of the experiment: clonogenic assay, human tumor xenografts in vitro. To be noted: Lung, small cell, LXFS 650, Small cell lung carcinoma, soft agar, read-out: IC50 (nM), colony formation. The method, then:
as §3, §4

The source of these data is patent US20160045513A1, “ISOXAZOLE COMPOUND FOR THE TREATMENT OF CANCER” (Novartis AG, priority 2007, published 2016).

Usually IC50 stands for the concentration at which inhibition is half-maximal. Regarding `CCNC(=O)c1noc(-c2cc(C(C)C)c(O)cc2O)c1-c1ccc(CN2CCOCC2)cc1` [AUY922, 5-(2,4-Dihydroxy-5-isopropyl-phenyl)-4-(4-morpholin-4-ylmethyl-phenyl)-isoxazole-3-carboxylic acid ethylamide], the IC50 in the experiment on RPMI8226 is 36.7 nM; with SK-MEL-5, 3 nM; with SKOV3 it was 3.7 nM; with WM266.4, 6.2 nM; in the experiment with NCI-N87, 0.2 nM; in the experiment on OVXF 1544, 53 nM. For the same compound, the IC50 in the experiment with CXF 158 turned out to be 369 nM; in the experiment with MEXF 1539 it was 3 nM; in the experiment on LIXF 575, 34 nM; with MEXF 672, 18 nM; in the experiment with BXF 1228, 630 nM; with PAXF 1657 it was 39 nM. For the same compound, the IC50 with CXF 609 turned out to be 55 nM; in the experiment on MAXF 401, 78 nM; with BXF 1218, 27 nM; in the experiment on LXFA 297, 28 nM; in the experiment on LXFL 1647, 34 nM; in the experiment with LXFS 650 it was 2 nM.
